Measurements: ChEMBL document CHEMBL1909046, “DrugMatrix in vitro pharmacology data”

Experiments:
[1] = biological target: 5-hydroxytryptamine receptor 4 (Cavia porcellus, UniProt O70528); assay type: cell membranes, Dunkin-Hartley, Striatum, Membrane; note: in other assays of this panel Not Active means under 50% inhibition at 10 µM
[2] = biological target: Prostaglandin G/H synthase 1 (Homo sapiens, UniProt P23219); assay: biochemical; assay type: tissue-based, Platelet; settings: platelet;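 note: inhibition of COX-1 enzyme activity, with arachidonic acid supplied as substrate; in other assays of this panel Not Active means under 50% inhibition at 10 µM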
Prostaglandin G/H synthase 1, sequence (P23219 whole entry): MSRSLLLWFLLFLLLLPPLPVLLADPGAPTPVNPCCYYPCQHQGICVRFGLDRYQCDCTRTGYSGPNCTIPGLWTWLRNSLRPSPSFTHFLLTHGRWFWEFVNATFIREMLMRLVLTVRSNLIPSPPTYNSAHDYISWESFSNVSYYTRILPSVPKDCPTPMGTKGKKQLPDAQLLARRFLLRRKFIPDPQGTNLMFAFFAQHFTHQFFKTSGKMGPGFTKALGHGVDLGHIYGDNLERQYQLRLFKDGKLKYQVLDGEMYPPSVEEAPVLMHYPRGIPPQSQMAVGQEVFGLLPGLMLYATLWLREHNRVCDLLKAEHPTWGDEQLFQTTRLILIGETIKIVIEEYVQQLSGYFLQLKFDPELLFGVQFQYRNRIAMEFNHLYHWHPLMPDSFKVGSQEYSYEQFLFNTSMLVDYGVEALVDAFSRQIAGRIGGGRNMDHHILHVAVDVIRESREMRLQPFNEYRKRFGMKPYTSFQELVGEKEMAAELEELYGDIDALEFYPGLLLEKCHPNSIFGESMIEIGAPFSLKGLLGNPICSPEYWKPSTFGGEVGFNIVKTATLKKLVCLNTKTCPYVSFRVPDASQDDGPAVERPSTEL

[3] = biological target: T1, 3-hydroxy-3-methylglutaryl-coenzyme A reductase (Homo sapiens, UniProt P04035); design: species or system Escherichia coli;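 note: enzyme inhibition assay of HMG-CoA reductase using radiolabeled [14C]HMG-CoA as substrate; in other assays of this panel Not Active means under 50% inhibition at 10 µM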
T1 sequence (P04035 whole entry): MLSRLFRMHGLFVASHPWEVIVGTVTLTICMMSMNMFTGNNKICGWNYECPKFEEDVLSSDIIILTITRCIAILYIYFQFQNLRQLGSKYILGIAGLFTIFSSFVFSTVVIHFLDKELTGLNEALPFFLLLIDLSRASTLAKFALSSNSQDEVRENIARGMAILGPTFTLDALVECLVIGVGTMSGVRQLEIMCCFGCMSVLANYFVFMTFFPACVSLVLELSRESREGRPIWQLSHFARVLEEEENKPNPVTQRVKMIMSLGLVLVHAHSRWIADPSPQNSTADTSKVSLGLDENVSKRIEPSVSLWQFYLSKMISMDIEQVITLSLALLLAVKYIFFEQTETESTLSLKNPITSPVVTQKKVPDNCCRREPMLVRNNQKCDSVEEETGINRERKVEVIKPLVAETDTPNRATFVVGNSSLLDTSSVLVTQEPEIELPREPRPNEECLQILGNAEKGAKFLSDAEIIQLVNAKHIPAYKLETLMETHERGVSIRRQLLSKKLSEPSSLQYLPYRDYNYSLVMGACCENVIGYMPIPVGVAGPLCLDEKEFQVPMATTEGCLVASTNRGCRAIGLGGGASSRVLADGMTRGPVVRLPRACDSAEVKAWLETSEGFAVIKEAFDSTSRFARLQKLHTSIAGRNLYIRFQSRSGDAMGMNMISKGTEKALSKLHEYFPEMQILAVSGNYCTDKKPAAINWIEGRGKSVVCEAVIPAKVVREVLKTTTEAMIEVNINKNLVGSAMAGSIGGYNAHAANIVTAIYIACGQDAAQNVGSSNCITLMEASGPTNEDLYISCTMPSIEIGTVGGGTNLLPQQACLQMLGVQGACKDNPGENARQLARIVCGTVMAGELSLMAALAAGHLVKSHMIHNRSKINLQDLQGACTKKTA

[4] = biological target: T2, Leukotriene C4 synthase (Cavia porcellus, UniProt A6XA80); assay type: tissue-based, Lung;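 note: enzyme inhibition assay of leukotriene C4 synthase, using LTA4 as the substrate; in other assays of this panel Not Active means under 50% inhibition at 10 µM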
T2 sequence (A6XA80 whole entry): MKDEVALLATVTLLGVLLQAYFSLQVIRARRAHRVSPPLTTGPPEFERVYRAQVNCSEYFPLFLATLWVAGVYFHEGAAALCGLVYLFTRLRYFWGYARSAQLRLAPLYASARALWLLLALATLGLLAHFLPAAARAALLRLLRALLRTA

[5] = biological target: T3, Muscarinic acetylcholine receptor M5 (Homo sapiens, UniProt P08912); assay type: cell membranes, CHO-K1, Membrane; settings: cho-k1; note: in other assays of this panel Not Active means under 50% inhibition at 10 µM
T3 sequence (P08912 whole entry): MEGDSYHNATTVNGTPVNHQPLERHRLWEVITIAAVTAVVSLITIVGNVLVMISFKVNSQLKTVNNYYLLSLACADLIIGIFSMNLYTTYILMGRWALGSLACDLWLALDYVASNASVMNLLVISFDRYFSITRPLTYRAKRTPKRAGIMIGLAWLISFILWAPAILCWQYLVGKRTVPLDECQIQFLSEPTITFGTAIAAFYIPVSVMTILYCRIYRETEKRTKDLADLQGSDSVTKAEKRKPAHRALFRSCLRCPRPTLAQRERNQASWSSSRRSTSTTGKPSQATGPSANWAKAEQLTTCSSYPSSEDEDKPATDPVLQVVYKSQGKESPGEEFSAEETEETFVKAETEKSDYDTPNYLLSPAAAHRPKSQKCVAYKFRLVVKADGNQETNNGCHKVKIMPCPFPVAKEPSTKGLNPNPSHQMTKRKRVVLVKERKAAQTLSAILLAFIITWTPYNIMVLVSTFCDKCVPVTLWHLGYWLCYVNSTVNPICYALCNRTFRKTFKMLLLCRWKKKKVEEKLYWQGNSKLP

[6] = DRUGMATRIX: Phosphodiesterase PDE3 enzyme inhibition (substrate: [3H]cAMP + cAMP); assay type: tissue-based, Homo sapiens; settings: platelet; Not Active = under 50% inhibition at 10 µM
[7] = biological target: Estrogen receptor beta (Homo sapiens, UniProt Q92731); settings: sf9; note: in other assays of this panel Not Active means under 50% inhibition at 10 µM
Estrogen receptor beta, sequence (Q92731 whole entry): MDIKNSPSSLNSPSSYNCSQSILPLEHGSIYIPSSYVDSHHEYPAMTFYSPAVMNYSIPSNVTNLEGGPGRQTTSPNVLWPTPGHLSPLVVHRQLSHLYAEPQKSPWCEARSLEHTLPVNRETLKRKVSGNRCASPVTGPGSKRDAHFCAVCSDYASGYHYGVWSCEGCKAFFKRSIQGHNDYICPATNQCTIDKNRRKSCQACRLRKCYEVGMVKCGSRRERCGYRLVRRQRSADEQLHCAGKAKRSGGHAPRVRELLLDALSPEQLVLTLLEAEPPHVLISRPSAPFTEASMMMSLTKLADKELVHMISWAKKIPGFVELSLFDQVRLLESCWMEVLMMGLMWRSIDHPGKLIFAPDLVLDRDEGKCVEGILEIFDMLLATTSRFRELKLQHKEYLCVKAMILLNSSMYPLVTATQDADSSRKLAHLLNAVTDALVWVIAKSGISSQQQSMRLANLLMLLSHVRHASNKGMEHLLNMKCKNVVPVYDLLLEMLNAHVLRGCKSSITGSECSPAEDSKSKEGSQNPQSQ

5-hydroxytryptamine receptor 4, sequence (O70528 whole entry): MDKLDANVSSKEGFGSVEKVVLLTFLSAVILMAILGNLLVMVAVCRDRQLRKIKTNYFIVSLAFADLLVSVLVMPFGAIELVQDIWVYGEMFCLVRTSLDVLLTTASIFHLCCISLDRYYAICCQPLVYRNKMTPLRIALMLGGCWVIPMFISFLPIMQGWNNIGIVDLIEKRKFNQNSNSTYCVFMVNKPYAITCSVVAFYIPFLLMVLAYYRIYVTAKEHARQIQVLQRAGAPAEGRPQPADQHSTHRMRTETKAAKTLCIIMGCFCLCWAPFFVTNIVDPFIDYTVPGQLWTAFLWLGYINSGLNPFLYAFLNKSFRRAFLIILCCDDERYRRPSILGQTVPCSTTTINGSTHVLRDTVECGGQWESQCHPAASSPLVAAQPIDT

CCC1=C[C@@H]2CN(C1)Cc1c([nH]c3ccccc13)[C@@](C(=O)OC)(c1cc3c(cc1OC)N(C)[C@H]1[C@@](O)(C(=O)OC)[C@H](OC(C)=O)[C@]4(CC)C=CCN5CC[C@]31[C@@H]54)C2 [VINORELBINE]
Not Active: IC50 [1] | IC50 [2] | IC50 [3] | IC50 [4] | IC50 [5] | IC50 [6] | Ki [6]

CC(C(=O)O)c1cccc(C(=O)c2ccccc2)c1 (stereo not given) [KETOPROFEN]
Not Active: IC50 [1] | IC50 [3] | IC50 [4] | IC50 [5] | IC50 [6] | Ki [6] | IC50 [7]

CC1(C)O[C@@H]2C[C@H]3[C@@H]4C[C@H](F)C5=CC(=O)C=C[C@]5(C)[C@@]4(F)[C@@H](O)C[C@]3(C)[C@]2(C(=O)CO)O1 [FLUOCINOLONE ACETONIDE]
Not Active: IC50 [1] | IC50 [2] | IC50 [3] | IC50 [4] | IC50 [5] | IC50 [6] | Ki [6]

CN1C(=O)COc2c(C(=O)NC3CN4CCC3CC4)cc(Cl)cc21 (stereo not given) [AZASETRON]
Not Active: IC50 [1] | IC50 [2] | IC50 [3] | IC50 [4] | IC50 [5] | IC50 [6] | Ki [6]

O=C(C1CCCCC1)N1CC(=O)N2CCc3ccccc3C2C1 (stereo not given) [PRAZIQUANTEL]
Not Active: IC50 [1] | IC50 [2] | IC50 [3] | IC50 [4] | IC50 [5] | IC50 [6] | Ki [6]

C[N+](C)(C)CCO.[Cl-] [CHOLINE CHLORIDE]
Not Active: IC50 [1] | IC50 [2] | IC50 [3] | IC50 [4] | IC50 [5] | IC50 [6] | Ki [6]

C[C@@]12C(=O)OC(=O)[C@]1(C)[C@H]1CC[C@@H]2O1 [CANTHARIDIN]
Not Active: IC50 [1] | IC50 [2] | IC50 [3] | IC50 [4] | IC50 [5] | IC50 [6] | Ki [6]

C/C=C/C[C@@H](C)[C@@H](O)[C@H]1C(=O)N[C@@H](CC)C(=O)N(C)CC(=O)N(C)[C@@H](CC(C)C)C(=O)N[C@@H](C(C)C)C(=O)N(C)[C@@H](CC(C)C)C(=O)N[C@@H](C)C(=O)N[C@H](C)C(=O)N(C)[C@@H](CC(C)C)C(=O)N(C)[C@@H](CC(C)C)C(=O)N(C)[C@@H](C(C)C)C(=O)N1C [CYCLOSPORINE]
Not Active: IC50 [1] | IC50 [2] | IC50 [3] | IC50 [4] | IC50 [5] | IC50 [6] | Ki [6]

COC(=O)C1=C(C)NC(C)=C(C(=O)OCC(C)C)C1c1ccccc1[N+](=O)[O-] (stereo not given) [NISOLDIPINE]
Not Active: IC50 [1] | IC50 [2] | IC50 [3] | IC50 [4] | IC50 [5] | IC50 [6] | Ki [6]

CC(=O)Nc1c(I)c(NC(C)=O)c(I)c(C(=O)O)c1I [DIATRIZOIC ACID]
Not Active: IC50 [1] | IC50 [2] | IC50 [3] | IC50 [4] | IC50 [5] | IC50 [6] | Ki [6]

CCCN(CCC)C(=O)C(CCC(=O)O)NC(=O)c1ccccc1 (stereo not given) [PROGLUMIDE]
Not Active: IC50 [1] | IC50 [2] | IC50 [3] | IC50 [4] | IC50 [5] | IC50 [6] | Ki [6]

CCCC(CCC)C(=O)O [VALPROIC ACID]
Not Active: IC50 [1] | IC50 [2] | IC50 [3] | IC50 [4] | IC50 [5] | IC50 [6] | Ki [6]

OC(CCN1CCCCC1)(c1ccccc1)C1CCCCC1 (stereo not given) [TRIHEXYPHENIDYL]
Not Active: IC50 [1] | IC50 [2] | IC50 [3] | IC50 [4] | IC50 [6] | Ki [6] | IC50 [7]

Cc1ccc(S(=O)(=O)NC(=O)NN2CC3CCCC3C2)cc1 (stereo not given) [GLICLAZIDE]
Not Active: IC50 [1] | IC50 [2] | IC50 [3] | IC50 [4] | IC50 [5] | IC50 [6] | Ki [6]

Cc1cc2cc3c(C)cc(=O)oc3c(C)c2o1 [TRIOXSALEN]
Not Active: IC50 [1] | IC50 [2] | IC50 [3] | IC50 [4] | IC50 [5] | IC50 [6] | Ki [6]

O=C1CC2(CCCC2)CC(=O)N1CCCCN1CCN(c2ncccn2)CC1 [BUSPIRONE]
Not Active: IC50 [1] | IC50 [2] | IC50 [3] | IC50 [4] | IC50 [5] | IC50 [6] | Ki [6]

C#C[C@]1(O)CC[C@H]2[C@@H]3CCc4cc(OC)ccc4[C@H]3CC[C@@]21C [MESTRANOL]
Not Active: IC50 [1] | IC50 [2] | IC50 [3] | IC50 [4] | IC50 [5] | IC50 [6] | Ki [6]

C[C@H]1C[C@H]2[C@@H]3CCC4=CC(=O)C=C[C@]4(C)[C@@]3(Cl)[C@@H](O)C[C@]2(C)[C@@]1(O)C(=O)CO [BECLOMETHASONE]
Not Active: IC50 [1] | IC50 [2] | IC50 [3] | IC50 [4] | IC50 [5] | IC50 [6] | Ki [6]

CCN(CC)CCOC(=O)c1ccc(N)cc1 [PROCAINE]
Not Active: IC50 [1] | IC50 [2] | IC50 [3] | IC50 [4] | IC50 [5] | IC50 [6] | Ki [6]

O=C(O)Cc1ccccc1Nc1c(Cl)cccc1Cl [DICLOFENAC]
Not Active: IC50 [1] | IC50 [3] | IC50 [4] | IC50 [5] | IC50 [6] | Ki [6] | IC50 [7]

Nc1c(CC(=O)O)cccc1C(=O)c1ccc(Br)cc1 [BROMFENAC]
Not Active: IC50 [1] | IC50 [3] | IC50 [4] | IC50 [5] | IC50 [6] | Ki [6] | IC50 [7]

COc1ccc2c(c1)c(CC(=O)O)c(C)n2C(=O)c1ccc(Cl)cc1 [INDOMETHACIN]
Not Active: IC50 [1] | IC50 [3] | IC50 [4] | IC50 [5] | IC50 [6] | Ki [6]

C[C@]12CC[C@@H]3c4ccc(O)cc4CC[C@H]3[C@@H]1CC[C@@H]2O [ESTRADIOL]
Not Active: IC50 [1] | IC50 [2] | IC50 [3] | IC50 [4] | IC50 [5] | IC50 [6] | Ki [6]

COc1ccc2cc([C@H](C)C(=O)O)ccc2c1 [NAPROXEN]
Not Active: IC50 [1] | IC50 [3] | IC50 [4] | IC50 [5]

CC(C)Cc1ccc(C(C)C(=O)O)cc1 (stereo not given) [IBUPROFEN]
Not Active: IC50 [1] | IC50 [3] | IC50 [4] | IC50 [5] | IC50 [6] | Ki [6] | IC50 [7]

CC(C)(C(=O)c1cccnc1)c1cccnc1 [METYRAPONE]
Not Active: IC50 [1] | IC50 [2] | IC50 [3] | IC50 [4] | IC50 [5] | IC50 [6] | Ki [6]

Cc1ncc([N+](=O)[O-])n1CCO [METRONIDAZOLE]
Not Active: IC50 [1] | IC50 [2] | IC50 [3] | IC50 [4] | IC50 [5] | IC50 [6] | Ki [6]
